Measurements: ChEMBL document CHEMBL5113403, “Design, synthesis, and biological evaluation of novel pyrazolo [3,4-d]pyrimidine derivatives as potent PLK4 inhibitors for the treatment of TRIM37-amplified breast cancer” (Eur J Med Chem, 2022)

Experiments:
[1] = target: T1, Serine/threonine-protein kinase PLK4 (Homo sapiens, UniProt O00444); experiment: Inhibition of recombinant human PLK4 incubated for 60 mins by Lanthascreen Eu kinase binding assay
T1 sequence (O00444 whole entry): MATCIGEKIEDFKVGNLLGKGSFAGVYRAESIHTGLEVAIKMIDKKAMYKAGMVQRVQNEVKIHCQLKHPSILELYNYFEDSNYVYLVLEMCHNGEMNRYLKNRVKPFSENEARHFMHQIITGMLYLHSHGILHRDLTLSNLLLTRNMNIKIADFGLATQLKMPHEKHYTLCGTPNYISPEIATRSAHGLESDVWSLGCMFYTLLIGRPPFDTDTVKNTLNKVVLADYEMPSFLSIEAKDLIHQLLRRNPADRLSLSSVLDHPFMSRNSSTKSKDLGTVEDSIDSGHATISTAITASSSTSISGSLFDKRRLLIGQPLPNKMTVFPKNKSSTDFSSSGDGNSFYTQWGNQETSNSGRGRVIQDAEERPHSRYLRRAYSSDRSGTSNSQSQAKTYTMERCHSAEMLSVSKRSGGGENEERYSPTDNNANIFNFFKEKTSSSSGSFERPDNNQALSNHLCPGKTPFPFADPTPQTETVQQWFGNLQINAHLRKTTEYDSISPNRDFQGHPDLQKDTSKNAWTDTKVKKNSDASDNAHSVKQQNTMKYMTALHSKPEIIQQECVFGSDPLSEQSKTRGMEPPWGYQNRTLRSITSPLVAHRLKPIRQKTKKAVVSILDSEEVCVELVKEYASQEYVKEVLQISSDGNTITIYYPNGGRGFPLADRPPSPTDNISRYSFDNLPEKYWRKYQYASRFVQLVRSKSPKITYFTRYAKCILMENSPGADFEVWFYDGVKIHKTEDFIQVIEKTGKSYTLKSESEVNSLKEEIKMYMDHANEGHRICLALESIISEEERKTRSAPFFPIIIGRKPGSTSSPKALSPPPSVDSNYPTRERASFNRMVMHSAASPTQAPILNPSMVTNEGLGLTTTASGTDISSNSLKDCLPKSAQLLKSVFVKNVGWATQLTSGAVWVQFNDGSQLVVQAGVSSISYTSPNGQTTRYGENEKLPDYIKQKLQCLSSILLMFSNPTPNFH

MCF7 = experiment: Antiproliferative activity against human MCF7 cells assessed as cell growth inhibition incubated for 5 days by MTT assay; format: functional, cell-based; conditions: MCF7, 120 h
BT-474 = experiment: Antiproliferative activity against human BT-474 cells assessed as cell growth inhibition incubated for 5 days by MTT assay; format: functional, cell-based; conditions: BT-474, 120 h
MDA-MB-231 = experiment: Antiproliferative activity against human MDA-MB-231 cells assessed as cell growth inhibition incubated for 5 days by MTT assay; format: functional, cell-based; conditions: MDA-MB-231, 120 h
[2] = target: T2, Serine/threonine-protein kinase PAK 4 (Homo sapiens, UniProt O96013); experiment: Inhibition of PAK4 (unknown origin) incubated for 60 mins by time-resolved HTRF assay
CYP2D6 = CYP2D6 (Homo sapiens, UniProt P10635); experiment: Inhibition of CYP2D6 in human liver microsomes at 10 uM preincubated for 10 mins followed by addition of NADPH-regenerating system and measured after 15 mins by LC-MS/MS analysis relative to control; format: ADME, Microsome; conditions: time 25 min
CYP2C9 = CYP2C9 (Homo sapiens, UniProt P11712); experiment: Inhibition of CYP2C9 in human liver microsomes at 10 uM preincubated for 10 mins followed by addition of NADPH-regenerating system and measured after 15 mins by LC-MS/MS analysis relative to control; format: ADME, Microsome; conditions: time 25 min
[3] = target: T1, Serine/threonine-protein kinase PLK4; experiment: Inhibition of PLK4 (unknown origin)
[4] = target: T3, Serine/threonine-protein kinase PLK4 (Homo sapiens) (UniProt O00444); experiment: Inhibition of PLK4 (unknown origin) at 2 uM relative to control
T3 sequence (whole entry): T1 sequence (O00444 whole entry)

[5] = target: T2, Serine/threonine-protein kinase PAK 4; experiment: Inhibition of PAK4 (unknown origin) using S2 as substrate incubated for 60 mins in the presence of ATP by time-resolved HTRF assay

T2 sequence (O96013 whole entry): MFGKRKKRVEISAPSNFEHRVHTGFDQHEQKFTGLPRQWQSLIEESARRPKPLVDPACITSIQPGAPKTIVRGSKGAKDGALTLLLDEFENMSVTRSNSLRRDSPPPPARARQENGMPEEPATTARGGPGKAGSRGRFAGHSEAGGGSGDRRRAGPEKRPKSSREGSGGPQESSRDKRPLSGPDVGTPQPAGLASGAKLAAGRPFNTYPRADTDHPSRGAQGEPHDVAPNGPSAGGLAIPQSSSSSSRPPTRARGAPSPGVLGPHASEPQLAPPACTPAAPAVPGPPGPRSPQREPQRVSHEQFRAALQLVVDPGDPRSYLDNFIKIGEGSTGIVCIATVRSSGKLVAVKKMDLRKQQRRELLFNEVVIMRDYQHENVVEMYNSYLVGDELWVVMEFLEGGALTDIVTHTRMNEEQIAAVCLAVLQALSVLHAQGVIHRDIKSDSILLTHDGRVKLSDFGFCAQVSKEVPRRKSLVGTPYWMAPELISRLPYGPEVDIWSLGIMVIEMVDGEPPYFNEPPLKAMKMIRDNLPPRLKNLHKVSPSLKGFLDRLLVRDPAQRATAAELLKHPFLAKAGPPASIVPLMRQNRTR
Chain of CYP2C9 (P11712 whole entry): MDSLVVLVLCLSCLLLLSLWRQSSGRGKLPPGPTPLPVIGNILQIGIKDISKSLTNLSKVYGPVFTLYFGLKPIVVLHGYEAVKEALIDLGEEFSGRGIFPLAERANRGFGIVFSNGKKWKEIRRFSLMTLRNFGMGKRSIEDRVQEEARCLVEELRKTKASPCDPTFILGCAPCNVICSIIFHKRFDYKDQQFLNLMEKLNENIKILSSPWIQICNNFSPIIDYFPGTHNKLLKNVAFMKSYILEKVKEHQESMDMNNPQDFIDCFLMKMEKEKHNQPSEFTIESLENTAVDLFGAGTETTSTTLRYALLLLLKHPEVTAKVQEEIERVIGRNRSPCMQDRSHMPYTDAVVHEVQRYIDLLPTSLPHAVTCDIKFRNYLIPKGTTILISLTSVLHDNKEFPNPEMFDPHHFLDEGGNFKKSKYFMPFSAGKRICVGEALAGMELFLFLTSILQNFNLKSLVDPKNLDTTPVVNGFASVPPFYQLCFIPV
Chain of CYP2D6 (P10635 whole entry): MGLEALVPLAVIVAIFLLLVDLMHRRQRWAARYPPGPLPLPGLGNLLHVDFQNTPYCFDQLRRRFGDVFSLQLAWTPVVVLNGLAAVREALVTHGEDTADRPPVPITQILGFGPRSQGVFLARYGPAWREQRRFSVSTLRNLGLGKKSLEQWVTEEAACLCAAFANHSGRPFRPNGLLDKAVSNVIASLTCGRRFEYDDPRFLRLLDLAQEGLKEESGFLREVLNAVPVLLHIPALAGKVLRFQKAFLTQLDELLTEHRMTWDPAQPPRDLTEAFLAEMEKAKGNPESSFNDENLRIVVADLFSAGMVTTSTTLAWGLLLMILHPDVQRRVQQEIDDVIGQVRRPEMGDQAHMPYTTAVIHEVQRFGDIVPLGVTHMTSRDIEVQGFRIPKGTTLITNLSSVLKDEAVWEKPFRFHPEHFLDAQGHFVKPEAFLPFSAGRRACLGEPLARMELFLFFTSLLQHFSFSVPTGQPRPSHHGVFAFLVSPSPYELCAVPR

| Compound | IC50 [1] | IC50 (MCF7) | IC50 (BT-474) | IC50 (MDA-MB-231) | IC50 [2] | further results |
| --- | --- | --- | --- | --- | --- | --- |
| Cc1cc(Nc2nc(NCc3ccc(Cl)cc3)nc3c2cnn3C(C)C)n[nH]1 | 3.7 nM | 2040 nM | 13000 nM | 4860 nM | – | – |
| Cc1cc(Nc2nc(NC3CCNCC3)nc3[nH]ncc23)n[nH]1 | 484 nM | – | – | – | 273 nM | – |
| CC(C)(C)c1cc(Nc2nc(NCc3ccc(F)cc3F)nc3c2cnn3C2CCOCC2)n[nH]1 | 726 nM | – | – | – | – | – |
| Cc1cc(Nc2nc(NCc3ccc(Cl)cc3)nc3c2cnn3C2CCCCC2)n[nH]1 | 47.9 nM | – | – | – | – | – |
| Fc1ccc(CNc2nc(Nc3n[nH]c4ccccc34)c3cnn(C4CCOCC4)c3n2)c(F)c1 | 536 nM | – | – | – | – | – |
| Cc1cc(Nc2nc(NCc3ccc(Cl)cc3)nc3[nH]ncc23)n[nH]1 | 0.3 nM | 860 nM | 11700 nM | 7500 nM | 515 nM | – |
| Cc1cc(Nc2nc(NCc3ccc(C#N)cc3)nc3[nH]ncc23)n[nH]1 | 10.5 nM | 6060 nM | 12100 nM | 1360 nM | – | – |
| Cc1cc(Nc2nc(NCc3cccc(Cl)c3)nc3[nH]ncc23)n[nH]1 | 5.5 nM | 5620 nM | 12800 nM | 6860 nM | 611 nM | – |
| Cc1cc(Nc2nc(NCc3ccc(F)cc3F)nc3c2cnn3C)n[nH]1 | 17.5 nM | – | – | – | – | – |
| Cc1cc(Nc2nc(N3CCNCC3)nc3[nH]ncc23)n[nH]1 | 533 nM | – | – | – | 1500 nM | – |
| Cc1cc(Nc2nc(NCc3ccc(Cl)cc3)nc3c2cnn3-c2ccc(F)cc2)n[nH]1 | 241 nM | – | – | – | – | – |
| Cc1cc(Nc2nc(NCc3ccc(F)cc3F)nc3c2cnn3CC(C)(C)O)n[nH]1 | 2.7 nM | 160 nM | 19400 nM | 2510 nM | 655 nM | – |
| CCc1cc(Nc2nc(NCc3ccc(F)cc3F)nc3c2cnn3C2CCOCC2)n[nH]1 | 0.7 nM | 1790 nM | 3060 nM | 2790 nM | – | – |
| Cc1cc(Nc2nc(Nc3ccccc3)nc3[nH]ncc23)n[nH]1 | 206 nM | – | – | – | 5900 nM | – |
| Fc1ccc(CNc2nc(Nc3cc(C4CC4)[nH]n3)c3cnn(C4CCOCC4)c3n2)c(F)c1 | 1.8 nM | 2480 nM | 7240 nM | 2560 nM | – | – |
| Fc1ccc(CNc2nc(Nc3cc(-c4ccccc4)[nH]n3)c3cnn(C4CCOCC4)c3n2)c(F)c1 | 969 nM | – | – | – | – | – |
| Cc1cc(Nc2nc(Cl)nc3[nH]ncc23)n[nH]1 | 489 nM | – | – | – | 5940 nM | – |
| Cc1cc(Nc2nc(NCc3ccccc3Cl)nc3[nH]ncc23)n[nH]1 | 0.7 nM | 4130 nM | 7160 nM | 4210 nM | 668 nM | – |
| Cc1cc(Nc2nc(NCc3ccccc3F)nc3[nH]ncc23)n[nH]1 | 1 nM | 2310 nM | 13200 nM | 9850 nM | 389 nM | – |
| Cc1cc(Nc2nc(NCc3cccc(Br)c3)nc3[nH]ncc23)n[nH]1 | 23.3 nM | – | – | – | 4340 nM | – |
| Cc1cc(Nc2nc(NCc3ccc(Br)cc3)nc3[nH]ncc23)n[nH]1 | 5.6 nM | 5340 nM | 4110 nM | 1860 nM | 1320 nM | – |
| Cc1cc(Nc2nc(NCc3ccc(Cl)cc3)nc3c2cnn3CC(F)(F)F)n[nH]1 | 118 nM | – | – | – | – | – |
| COc1ccc(CNc2nc(Nc3cc(C)[nH]n3)c3cn[nH]c3n2)cc1 | 6.5 nM | 3320 nM | 8230 nM | 1320 nM | – | – |

| Compound | IC50 [1] | IC50 (MCF7) | IC50 (BT-474) | IC50 (MDA-MB-231) | IC50 [2] | further results |
| --- | --- | --- | --- | --- | --- | --- |
| Cc1cc(Nc2nc(NCc3ccc(F)cc3F)nc3c2cnn3C2CCCCC2)n[nH]1 | 7.9 nM | 810 nM | 6230 nM | 2960 nM | – | – |
| Cc1cc(Nc2nc(NCc3ccc(Cl)cc3)nc3c2cnn3CC(C)(C)O)n[nH]1 | 3.8 nM | 1940 nM | 16200 nM | 3980 nM | – | – |
| Cc1cc(Nc2nc(NCc3ccc(F)cc3)nc3[nH]ncc23)n[nH]1 | 0.8 nM | 970 nM | 8750 nM | 8410 nM | 395 nM | – |
| Fc1ccc(-c2cc(Nc3nc(NCc4ccc(F)cc4F)nc4c3cnn4C3CCOCC3)n[nH]2)cc1 | 1290 nM | – | – | – | – | – |
| Cc1cc(Nc2nc(NCc3ccc(F)c(F)c3)nc3[nH]ncc23)n[nH]1 | 22.2 nM | – | – | – | – | – |
| Cc1cc(Nc2nc(NCc3ccccc3)nc3[nH]ncc23)n[nH]1 | 21.2 nM | – | – | – | 1960 nM | – |
| Cc1cc(Nc2nc(NC3CCNC3)nc3[nH]ncc23)n[nH]1 (configuration not stated) | 454 nM | – | – | – | 1050 nM | – |
| Cc1cc(Nc2nc(NCc3ccc(F)cc3F)nc3c2cnn3C(C)C)n[nH]1 | 1.1 nM | 4320 nM | 17300 nM | 5350 nM | – | – |
| COc1c(Nc2cc(C)[nH]n2)nc(Sc2ccc(S(=O)(=O)Cc3cccc([N+](=O)[O-])c3F)cc2F)nc1N1CCOCC1 | – | 2270 nM | 10500 nM | 8690 nM | – | – |
| Cc1cnc(Nc2nc(NCc3ccc(F)cc3F)nc3c2cnn3C2CCOCC2)s1 | 20.7 nM | – | – | – | – | – |
| Cc1cc(Nc2nc(NCc3ccc(Cl)cc3)nc3c2cnn3C)n[nH]1 | 20.2 nM | – | – | – | – | – |
| Cc1cc(Nc2nc(NCc3ccccc3Br)nc3[nH]ncc23)n[nH]1 | 8.7 nM | 14100 nM | 10100 nM | 3990 nM | 1090 nM | – |
| Fc1ccc(CNc2nc(Nc3n[nH]c4ccc(Cl)cc34)c3cnn(C4CCOCC4)c3n2)c(F)c1 | 3180 nM | – | – | – | – | – |
| C=C[C@H]1C[N@@]2CC[C@H]1C[C@@H]2[C@@H](O)c1ccnc2ccc(OC)cc12 [QUINIDINE] | – | – | – | – | – | inhibition at 0.25 h, 10 µM (CYP2D6): 95.9% |
| Cc1cc(Nc2nc(NCc3ccc(Cl)cc3)nc3c2cnn3C2CCNCC2)n[nH]1 | 7 nM | 790 nM | 2350 nM | 3220 nM | – | – |
| Nc1ccc(S(=O)(=O)Nc2ccnn2-c2ccccc2)cc1 [SULFAPHENAZOLE] | – | – | – | – | – | inhibition at 0.25 h, 10 µM (CYP2C9): 81.4% |
| Cc1cc(Nc2nc(NCc3cccc(F)c3)nc3[nH]ncc23)n[nH]1 | 14.6 nM | – | – | – | 458 nM | – |
| Cc1cc(Nc2nc(NCc3ccc(Cl)cc3)nc3c2cnn3C2CCOCC2)n[nH]1 | 4 nM | 1550 nM | 18300 nM | 9420 nM | – | – |
| Cc1cc(Nc2nc(NCc3ccc(F)cc3F)nc3[nH]ncc23)n[nH]1 | 0.1 nM | 670 nM | 3220 nM | 2670 nM | 96.1 nM | – |
| Cc1cc(Nc2nc(NCc3c(F)cc(F)cc3F)nc3[nH]ncc23)n[nH]1 | 78.5 nM | – | – | – | – | – |
| Cc1cc(Nc2cc(Cc3ccccc3)nc(NC3CCNCC3)n2)n[nH]1 | – | – | – | – | – | IC50 [3]: 351 nM; inhibition [4]: 58.4%; IC50 [5]: 5.9 nM |
| Cc1cc(Nc2nc(NCc3ccc(F)cc3F)nc3c2cnn3C2CCNCC2)n[nH]1 | 0.7 nM | 410 nM | 2970 nM | 1080 nM | 231 nM | – |
